The values that follow come from patent publication US20100267713A1, “4,4-DISUBSTITUTED PIPERIDINES” (priority 2007, published 2010).

For the test, the target named is T1, renin (Homo sapiens, UniProt P00797).
T1 construct: This test measures the formation of angiotensin I in human plasma; from tissue; host or cells: human plasma
T1 sequence (P00797 67-406): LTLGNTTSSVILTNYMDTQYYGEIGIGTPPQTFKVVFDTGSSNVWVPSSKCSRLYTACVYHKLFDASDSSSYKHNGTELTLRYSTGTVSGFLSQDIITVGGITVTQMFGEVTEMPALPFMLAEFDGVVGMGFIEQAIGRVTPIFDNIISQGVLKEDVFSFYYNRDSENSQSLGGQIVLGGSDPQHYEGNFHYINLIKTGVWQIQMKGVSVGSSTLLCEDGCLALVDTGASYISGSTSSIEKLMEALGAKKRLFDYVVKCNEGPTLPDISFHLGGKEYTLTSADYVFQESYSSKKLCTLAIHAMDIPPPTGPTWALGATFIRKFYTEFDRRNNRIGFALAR
The test can be described thus: formation of angiotensin I in human plasma, radioimmunoassay (Nussberger et al.). To be noted: read-out: IC50, inhibition of the formation of angiotensin I. The format is biochemical. On the procedure:
The effect of renin inhibitors is detected inter alia experimentally by means of in vitro tests where the reduction in the formation of angiotensin I is measured in various systems (human plasma, purified human renin together with synthetic or natural renin substrate). The following in vitro test of Nussberger et al. (1987) J. Cardiovascular Pharmacol., Vol. 9, pp. 39-44, is used inter alia. This test measures the formation of angiotensin I in human plasma. The amount of angiotensin I formed is determined in a subsequent radioimmunoassay. The effect of inhibitors on the formation of angiotensin I is tested in this system by adding various concentrations of these substances. The IC50 is defined as the concentration of the particular inhibitor which reduces the formation of angiotensin I by 50%. The compounds of the present invention show inhibitory effects in the in vitro systems at minimal concentrations of about 10^−6 to about […].

`CCCc1nc(COC[C@@H](C)OCC)ccc1[C@@]1(O)CCNC[C@@H]1OCc1ccc2c(c1)N(CCCOC)CCO2` [Example 501, (3′S,4′S)-6-((R)-2-Ethoxy-propoxymethyl)-3′-[4-(3-methoxy-propyl)-3,4-dihydro-2H-benzo[1,4]oxazin-6-ylmethoxy]-2-propyl-2′,3′,5′,6′-tetrahydro-1′H-[3,4′]bipyridinyl-4′-ol]: the half-inhibitory concentration (IC50) – broadly, the concentration needed to halve the response being measured – stood at 48 nM.
